Assay results reported in patent publication US20250243180A1, “TARGETED PROTEIN DEGRADATION” (Monte Rosa Therapeutics AG, priority 2023, published 2025).
Where two headings read alike, the source gives them in different places.

Assays:
CRBN-DDB1 = CRBN-DDB1 (Homo sapiens (Human), UniProt Q96SW2); test: Compound binding to CRBN by HTRF assay
Method: Compound activity was monitored in a Homogenous Time-Resolved Fluorescence (HTRF) assay using 1-[5-({2-[2-(2-{[2-(2,6-dioxopiperidin-3-yl)-1,3-dioxo-2,3-dihydro-1H-isoindol-4-yl]oxy}acetamido)ethoxy]ethyl}carbamoyl)pentyl]-3,3-dimethyl-2-[(1E,3E)-5-[(2E)-1,3,3-trimethyl-5-sulfo-2,3-dihydro-1H-indol-2-ylidene]penta-1,3-dien-1-yl]-3H-indol-1-ium-5-sulfonate as a fluorescent probe. Biochemical assays were conducted in Greiner white 384 well HiBase plates (Cat. No 784075-25) in 20 μL total volume. A one pot detection solution of CRBN-DDB1 (2.5 nM), Anti-His Terbium Cryptate Gold (1×, PerkinElmer Cat. #: 61HI2TLB), and Cy5-Thalidomide (100 nM, Tenova Cat.: T52461) was prepared in 20 mM HEPES, 20 mM NaCl, 0.2 mM TCEP, 0.2 mM EDTA, and 0.005% Tween20 was dispensed to each assay plate. Compounds were stored in dry, ambient temperatures at 10 mM. An 11-point, 1:3 dilution series was prepared from 10 mM stock concentrations in Echo-compatible LDV plates. 10 nL of each compound dilution series was dispensed into assays wells using an Echo 650 (Labcyte Inc. USA). 20 nL of 10 mM Lenalidomide was transferred into the active-control wells for the assay and 20 nL of DMSO was transferred into the neutral-control wells. The assay was then allowed to incubate for 30 min at ambient temperature after transferring compound. Plate measurements were taken on a Pherastar FSX (BMG Labtech, Germany) using the HTRF Red filter (Ex. 337 nm, em1: 620 nm, em2: 665 nm) (Flashes: 50, Integration time: 60-400 us, Z-height: 10 mm, Ratio-multiplier: 10,000). The HTRF signal was then subsequently normalized to the neutral and active controls. Analysis and EC50 values were derived using KNIME analytics (KNIME Zurich) transformation and fitting within Collaborative Drug Discovery (Collaborative Drug Discovery USA). Ki was derived from the geometric mean of the EC50 values using the Cheng-Prustoff transformation.

NEK7 = NEK7 (Homo sapiens (Human), UniProt Q8TDX7+Q96SW2); test: NEK7 NanoBiT degradation assay in Cal51 NEK7 NanoBiT cell line; type: cell-based; conditions: Cal51 NEK7 NanoBiT cells, 24 hours; for Dmax: CAL-51
NEK7, sequence (Q8TDX7 whole entry): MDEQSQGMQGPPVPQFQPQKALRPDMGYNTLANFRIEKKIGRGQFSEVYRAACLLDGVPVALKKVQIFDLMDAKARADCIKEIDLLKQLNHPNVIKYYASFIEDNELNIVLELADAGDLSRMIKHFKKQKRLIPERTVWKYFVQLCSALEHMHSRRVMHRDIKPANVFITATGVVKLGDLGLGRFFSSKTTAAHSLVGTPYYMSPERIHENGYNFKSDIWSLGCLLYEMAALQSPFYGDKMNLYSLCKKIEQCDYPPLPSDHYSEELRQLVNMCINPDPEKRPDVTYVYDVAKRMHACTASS
NEK7, sequence (Q96SW2 whole entry): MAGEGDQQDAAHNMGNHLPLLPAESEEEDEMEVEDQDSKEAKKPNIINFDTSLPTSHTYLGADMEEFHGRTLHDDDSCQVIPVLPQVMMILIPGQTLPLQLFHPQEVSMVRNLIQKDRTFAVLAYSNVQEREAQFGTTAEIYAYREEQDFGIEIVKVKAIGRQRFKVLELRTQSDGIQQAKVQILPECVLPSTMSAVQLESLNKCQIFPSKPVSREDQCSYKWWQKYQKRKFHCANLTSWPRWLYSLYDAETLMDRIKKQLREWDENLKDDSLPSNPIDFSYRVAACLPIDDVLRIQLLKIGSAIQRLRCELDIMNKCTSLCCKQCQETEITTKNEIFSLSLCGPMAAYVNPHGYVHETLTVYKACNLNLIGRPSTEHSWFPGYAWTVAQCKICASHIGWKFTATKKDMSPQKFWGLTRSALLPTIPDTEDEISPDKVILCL
NEK7, sequence (Q16531 2-1140 partner): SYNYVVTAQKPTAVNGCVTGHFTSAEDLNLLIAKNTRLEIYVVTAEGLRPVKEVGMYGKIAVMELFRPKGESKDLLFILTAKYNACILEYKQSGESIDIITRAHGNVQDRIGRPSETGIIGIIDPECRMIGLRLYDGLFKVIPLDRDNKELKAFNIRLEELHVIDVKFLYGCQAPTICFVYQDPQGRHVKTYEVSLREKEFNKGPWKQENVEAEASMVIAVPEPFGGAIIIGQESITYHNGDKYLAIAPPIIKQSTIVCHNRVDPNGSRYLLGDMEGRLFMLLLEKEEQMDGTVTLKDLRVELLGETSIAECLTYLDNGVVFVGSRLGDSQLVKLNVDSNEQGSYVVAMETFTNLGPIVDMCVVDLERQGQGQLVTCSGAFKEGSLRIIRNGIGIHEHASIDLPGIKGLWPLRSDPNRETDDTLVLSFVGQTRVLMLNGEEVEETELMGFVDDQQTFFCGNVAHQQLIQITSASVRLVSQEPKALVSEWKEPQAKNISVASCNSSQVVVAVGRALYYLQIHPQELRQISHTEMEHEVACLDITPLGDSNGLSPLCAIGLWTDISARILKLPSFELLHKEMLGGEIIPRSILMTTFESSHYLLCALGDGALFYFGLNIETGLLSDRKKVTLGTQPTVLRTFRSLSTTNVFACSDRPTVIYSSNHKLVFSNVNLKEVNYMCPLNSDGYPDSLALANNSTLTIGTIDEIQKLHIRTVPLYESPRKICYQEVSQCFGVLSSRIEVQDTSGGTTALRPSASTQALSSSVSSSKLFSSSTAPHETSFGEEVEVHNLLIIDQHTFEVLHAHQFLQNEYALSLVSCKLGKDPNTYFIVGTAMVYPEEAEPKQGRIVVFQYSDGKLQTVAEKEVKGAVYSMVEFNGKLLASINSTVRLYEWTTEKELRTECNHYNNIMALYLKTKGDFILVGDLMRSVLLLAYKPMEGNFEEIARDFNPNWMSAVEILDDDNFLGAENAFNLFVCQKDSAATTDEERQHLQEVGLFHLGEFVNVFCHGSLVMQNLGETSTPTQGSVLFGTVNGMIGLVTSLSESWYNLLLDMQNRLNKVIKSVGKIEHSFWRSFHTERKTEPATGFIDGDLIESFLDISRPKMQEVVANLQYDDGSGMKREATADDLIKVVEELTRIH
Method: Cal51 NEK7 NanoBiT cell line was generated via CRISPR Knock-In of the HiBiT tag in NEK7 gene and stable infection with a lentivirus carrying LgBiT protein. The cell line was generated in house. For the experiment, cells were plated in 384-well white flat bottom plates (Corning, 3570BC) at 2500 cells per well using Multiflo (BioTek/Agilent) and in 25 μl volume in DMEM experimental medium: DMEM (DMEM, high glucose, HEPES, no phenol red (ThermoFisher Scientific, 21063029) supplemented with 10% FBS (Corning, 35-075-CV), 1% Penicillin/Streptomycin ((ThermoFisher Scientific, 15140-122), and 1% Endurazine (Nano-Glo Endurazine Live Cell Substrate (Promega, N2571)). Cells were incubated for 16 hours at 37° C., 5% CO2 before compound addition. For dose response determination, 2.5 nL of a compound at different concentrations (stock compound concentration range: 10 mM to 0.5 μM, final concentration range inside cell plate: 1 μM to 0.05 nM) were dispensed into the plate using an Echo® 650 liquid handling device (Backman Coulter/Labcyte). Cells were incubated at 37° C., 5% CO2 for 24 hours and then signal was read on a Pherastar FSX using “LUM plus” optic module with 4095 gain and measurement interval time 0.2 seconds.
Analysis was performed in Genedata Screener (Genedata, Basel, CH). Luminescence response (R) was calculated by the formula: response=100*(S−N)/(P−N) where S is the signal of the well, N and P the mean negative and positive control values respectively of the same plate. The luminescence response was then fitted in Genedata using a 4-parameter antagonist logistic fit (hill slope unconstrained, EC50>0, top/bottom unconstrained).

[1] = NEK7 degradation, read-out: NanoBiT Dmax
[2] = NEK7 degradation, read-out: NanoBiT DC50

CRBN-DDB1, sequence (Q96SW2 whole entry): as the sequence (Q96SW2 whole entry) above
CRBN-DDB1, sequence (Q16531 whole entry partner): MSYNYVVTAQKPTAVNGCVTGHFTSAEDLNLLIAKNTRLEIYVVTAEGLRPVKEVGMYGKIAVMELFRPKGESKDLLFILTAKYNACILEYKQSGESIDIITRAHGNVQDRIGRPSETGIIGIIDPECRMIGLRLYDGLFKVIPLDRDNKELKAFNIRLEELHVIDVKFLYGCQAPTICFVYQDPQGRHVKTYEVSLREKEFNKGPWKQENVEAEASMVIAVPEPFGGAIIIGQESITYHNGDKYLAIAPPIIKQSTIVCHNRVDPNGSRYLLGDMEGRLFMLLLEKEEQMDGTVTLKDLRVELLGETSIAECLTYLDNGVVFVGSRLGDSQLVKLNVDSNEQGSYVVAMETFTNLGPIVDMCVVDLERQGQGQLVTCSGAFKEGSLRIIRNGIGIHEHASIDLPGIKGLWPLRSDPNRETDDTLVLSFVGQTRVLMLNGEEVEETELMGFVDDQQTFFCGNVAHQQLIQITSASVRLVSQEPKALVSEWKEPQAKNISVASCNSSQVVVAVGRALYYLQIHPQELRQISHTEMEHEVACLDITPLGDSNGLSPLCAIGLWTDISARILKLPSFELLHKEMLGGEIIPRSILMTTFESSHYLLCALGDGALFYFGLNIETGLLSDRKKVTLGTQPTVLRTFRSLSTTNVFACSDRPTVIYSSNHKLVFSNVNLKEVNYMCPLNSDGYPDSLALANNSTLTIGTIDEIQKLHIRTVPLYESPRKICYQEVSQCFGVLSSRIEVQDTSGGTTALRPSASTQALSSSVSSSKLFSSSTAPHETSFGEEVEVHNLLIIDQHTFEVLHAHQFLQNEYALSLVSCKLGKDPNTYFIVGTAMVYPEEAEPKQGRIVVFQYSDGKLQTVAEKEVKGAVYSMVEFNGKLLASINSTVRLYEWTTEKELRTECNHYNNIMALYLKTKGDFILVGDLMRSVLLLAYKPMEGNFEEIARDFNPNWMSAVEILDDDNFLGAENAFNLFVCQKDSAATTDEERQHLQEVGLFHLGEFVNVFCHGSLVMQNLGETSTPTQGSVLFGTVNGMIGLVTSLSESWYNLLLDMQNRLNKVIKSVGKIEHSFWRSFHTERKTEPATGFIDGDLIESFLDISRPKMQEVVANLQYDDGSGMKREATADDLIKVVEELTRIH

| Structure (SMILES) | EC50 (CRBN-DDB1) [nM] | EC50 (CRBN-DDB1; HTRF class, Cereblon binding) [nM] | Dmax (NEK7; read-out: NEK7 NanoBiT Dmax) [%] | Dmax (NEK7; [1]) [%] | DC50 (NEK7; read-out: NEK7 NanoBiT DC50) [nM] | DC50 (NEK7; [2]) [nM] |
| --- | --- | --- | --- | --- | --- | --- |
| CC(C)(C(=O)NCc1cc(Cl)c([C@H]2CCC(=O)NC2=O)c(Cl)c1)c1ncc(C#N)cn1 (single isomer, unassigned) [Compound 153] | ≥ 10000 | > 1000 | 90 | > 75 | 53 | ≤ 100 |
| Cc1cnc(C(C)(C)C(=O)NCc2cc(Cl)c([C@H]3CCC(=O)NC3=O)c(Cl)c2)nc1 (single isomer, unassigned) [Compound 155] | ≥ 10000 | > 1000 | 75 | 50 to 75 | 186 | 100 to 1000 |
| CC(C)(C(=O)NCc1cc(Cl)c([C@@H]2CCC(=O)NC2=O)c(Cl)c1)c1ncccn1 (single isomer, unassigned) [Compound 179] | 4170 | > 1000 | 59 | 50 to 75 | 578 | 100 to 1000 |
| Cc1nnc(C(C)(C)C(=O)NCc2cc(Cl)c([C@H]3CCC(=O)NC3=O)c(Cl)c2)o1 (single isomer, unassigned) [Compound 225] | 6560 | > 1000 | 49 | ≤ 50 | 1000 | > 1000 |
| Cc1cnc(C(C)(C)C(=O)NCc2cc(Cl)c([C@]3(F)CCC(=O)NC3=O)c(Cl)c2)nc1 (single isomer, unassigned) [Compound 243] | ≥ 10000 | > 1000 | 9 | ≤ 50 | 1000 | > 1000 |
| Cc1cnc(C(C)(C)C(=O)NCc2cc(Cl)c([C@@]3(F)CCC(=O)NC3=O)c(Cl)c2)nc1 (single isomer, unassigned) [Compound 244] | 220 | 100 to 1000 | 19 | ≤ 50 | 1000 | > 1000 |
| CC(C)(C(=O)NCc1cc(Cl)c([C@]2(F)CCC(=O)NC2=O)c(Cl)c1)c1ccccc1 (single isomer, unassigned) [Compound 273] | 250 | 100 to 1000 | 70 | 50 to 75 | 136 | 100 to 1000 |
| CC(C)(C(=O)NCc1cc(Cl)c([C@@]2(F)CCC(=O)NC2=O)c(Cl)c1)c1ccccc1 (single isomer, unassigned) [Compound 274] | ≥ 10000 | > 1000 | 3 | ≤ 50 | 1000 | > 1000 |
| CC1(C(=O)NCc2ccc(C3CCC(=O)NC3=O)c(Cl)c2)CCc2ccccc2C1 (centres unmarked) [Compound 102] | – | – | 86 | > 75 | 51 | ≤ 100 |
| CC(C)(C(=O)NCc1ccc(C2CCC(=O)NC2=O)c(Cl)c1)c1cccc(C(F)(F)F)n1 (centres unmarked) [Compound 104] | – | – | 80 | > 75 | 122 | 100 to 1000 |
| CC(C)(C(=O)NCc1ccc(C2CCC(=O)NC2=O)c(Cl)c1)c1ccc(Cl)nc1 (centres unmarked) [Compound 105] | – | – | 84 | > 75 | 58 | ≤ 100 |
| Cc1noc(C)c1C(C)(C)C(=O)NCc1cc(Cl)c(C2CCC(=O)NC2=O)c(Cl)c1 (centres unmarked) [Compound 112] | – | – | 40 | ≤ 50 | 1000 | > 1000 |
| CC(C)(C(=O)NCc1cc(Cl)c(C2CCC(=O)NC2=O)c(Cl)c1)c1cscn1 (centres unmarked) [Compound 113] | – | – | 61 | 50 to 75 | 151 | 100 to 1000 |
| CC(C)(C(=O)NCc1cc(Cl)c(C2CCC(=O)NC2=O)c(Cl)c1)c1cncs1 (centres unmarked) [Compound 114] | – | – | 69 | 50 to 75 | 52 | ≤ 100 |
| Cn1ccc(C(C)(C)C(=O)NCc2cc(Cl)c(C3CCC(=O)NC3=O)c(Cl)c2)n1 (centres unmarked) [Compound 117] | – | – | 74 | 50 to 75 | 51 | ≤ 100 |
| CC(C)(C(=O)NCc1cc(Cl)c(C2CCC(=O)NC2=O)c(Cl)c1)c1c[nH]cn1 (centres unmarked) [Compound 118] | – | – | 48 | ≤ 50 | 760 | 100 to 1000 |
| Cn1cnnc1C(C)(C)C(=O)NCc1cc(Cl)c(C2CCC(=O)NC2=O)c(Cl)c1 (centres unmarked) [Compound 119] | – | – | 45 | ≤ 50 | 1000 | > 1000 |
| CC(C)(C(=O)NCc1cc(Cl)c(C2CCC(=O)NC2=O)c(Cl)c1)c1ccc(CC#N)nn1 (centres unmarked) [Compound 214] | – | – | 49 | ≤ 50 | 635 | 100 to 1000 |

Now those with a lower DC50 (NEK7; read-out: NEK7 NanoBiT DC50), led by results:

| EC50 (CRBN-DDB1) [nM] | EC50 (CRBN-DDB1; HTRF class, Cereblon binding) [nM] | Dmax (NEK7; read-out: NEK7 NanoBiT Dmax) [%] | Dmax (NEK7; [1]) [%] | DC50 (NEK7; read-out: NEK7 NanoBiT DC50) [nM] | DC50 (NEK7; [2]) [nM] | Structure (SMILES) |
| --- | --- | --- | --- | --- | --- | --- |
| 240 | 100 to 1000 | 95 | > 75 | 2 | ≤ 100 | CC(C)(C(=O)NCc1cc(Cl)c([C@@H]2CCC(=O)NC2=O)c(Cl)c1)c1ncc(C#N)cn1 (single isomer, unassigned) [Compound 152] |
| 180 | 100 to 1000 | 89 | > 75 | 4 | ≤ 100 | Cc1cnc(C(C)(C)C(=O)NCc2cc(Cl)c([C@@H]3CCC(=O)NC3=O)c(Cl)c2)nc1 (single isomer, unassigned) [Compound 154] |
| 120 | 100 to 1000 | 81 | > 75 | 16 | ≤ 100 | CC(C)(C(=O)NCc1cc(Cl)c([C@H]2CCC(=O)NC2=O)c(Cl)c1)c1ncccn1 (single isomer, unassigned) [Compound 180] |
| 90 | ≤ 100 | 77 | > 75 | 32 | ≤ 100 | Cc1nnc(C(C)(C)C(=O)NCc2cc(Cl)c([C@@H]3CCC(=O)NC3=O)c(Cl)c2)o1 (single isomer, unassigned) [Compound 224] |
| 150 | 100 to 1000 | 89 | > 75 | 9 | ≤ 100 | CC(C)(C(=O)NCc1cc(Cl)c(C2CCC(=O)NC2=O)c(Cl)c1)c1ncc(C2CC2)cn1 (centres unmarked) [Compound 1, 2-(5-cyclopropylpyrimidin-2-yl)-N-(3,5-dichloro-4-(2,6-dioxopiperidin-3-yl)benzyl)-2-methylpropan-amide] |
| – | – | 91 | > 75 | 45 | ≤ 100 | CC(C)(C(=O)NCc1ccc(C2CCC(=O)NC2=O)c(Cl)c1)c1ccc(OC(F)(F)F)cc1 (centres unmarked) [Compound 100] |
| – | – | 95 | > 75 | 5 | ≤ 100 | CC(C)(C(=O)NCc1ccc(C2CCC(=O)NC2=O)c(Cl)c1)c1ccc(Cl)cc1 (centres unmarked) [Compound 101] |
| – | – | 76 | > 75 | 43 | ≤ 100 | CC(C)(C(=O)NCc1cc(Cl)c(C2CCC(=O)NC2=O)c(Cl)c1)c1cc[nH]n1 (centres unmarked) [Compound 115] |
| – | – | 80 | > 75 | 20 | ≤ 100 | Cc1cc(C(C)(C)C(=O)NCc2cc(Cl)c(C3CCC(=O)NC3=O)c(Cl)c2)nn1C (centres unmarked) [Compound 116] |
